In experiment [1] the test system is NPC1 human fibroblast GM18453; NPC2 human fibroblast GM18445. The experiment is described as follows: HDAC inhibitor effect on LSO cholesterol, 48-hour treatment. Conditions: 37 nM. Type of experiment: cell-based. How it is done:
Cells were treated in complete medium for two days (48 hours). The dashed horizontal line is 3SD below the mean for untreated cells. (A) results for NPC1 human fibroblast GM18453, (B) results for NPC2 human fibroblast GM18445.
Each data point in the plot is representative of a total of 32 images from two independent experiments. The standard deviation (SD) for DMSO is 0.07, error bar=SE. The dotted line represents the DMSO control.

For experiment [2], the system named is NPC1- or NPC2-deficient cell lines. Conditions: literature study, cultured NPC1- and NPC2-deficient cells; cited from earlier work.
Another experiment concerns GM03123 (NPC1) cells. As to the kind of experiment: LSO filipin assay of cholesterol accumulation, NPC1 mutant fibroblasts. Format: cell-based, human. How it is done: (§1) FIGS. 5 A-D. Charts showing quantification of CD effects on cholesterol accumulation in NPC1 and NPC2 mutant cells. The filipin fluorescence in LSOs was measured in NPC1 (A and B) and NPC2 (C and D) mutant cells treated with either MβCD (A and C) or HPβCD (B and D) for 1-4 days.
(§2) FIG. 6. Chart comparing cholesterol accumulation as measured by the LSO assay in NPC1-defective, NPC2-defective, and apparently normal human fibroblasts. […] At the end of the experiment, cells were fixed with 1% PFA and stained with 50 μg/mL filipin. Images were acquired using an ImageXpress MICRO imaging system with a 10× objective. Quantification of filipin labeling of the LSOs was performed as described previously (Pipalia N H, Huang A, Ralph H, Rujoi M, Maxfield FR (2006) Automated microscopy screening for compounds that partially revert cholesterol accumulation in Niemann-Pick C cells. J. Lipid Res. 47:284-301).

The subject of the next experiment is GM18455 (NPC2) cells. The experiment is described as follows: LSO filipin assay of cholesterol accumulation, NPC2 mutant fibroblasts. Type of experiment: cell-based, human. The method, then:
as §1, §2

Experiment [3] concerns NPC1 and NPC2 mutant cells. The experiment is described as follows: LSO filipin staining after cyclodextrin treatment, withdrawal and acute treatment. Format: cell-based, human. Conditions: for cholesterol accumulation detected by filipin labeling: 300 μM CD for 1 day (FIG. 4); for LSO values one more day after CD removal versus fixed immediately / LSO cholesterol accumulation after three days without extracellular CD: 1 day treatment; for LSO values one more day after CD removal versus fixed immediately: then 1 day in growth medium without CD; for LSO cholesterol accumulation after three days without extracellular CD: then three days in serum containing medium; for level to which LSO cholesterol accumulation is reduced: low micromolar concentrations, 1-4 days (FIG. 5). The method, then:
FIG. 4. Micrographs showing the effect of CDs on cholesterol accumulation in NPC1- and NPC2-deficient cells. (A) Background and shading corrected images of untreated (a and b), MβCD-treated (c and d), or HPβCD-treated (e and f) GM03123 NPC1 cells (a, c, and e) or GM18455 NPC2 (b, d, and f) mutant cells. NPC mutant cells were treated with 300 μMCD for 1 day. (B) Untreated, apparently normal GM05659 cells, shown for comparison. (Scale bars, 100 μm.)
FIGS. 8 A-D. Charts showing persistence of CD effects after treatment. NPC1 (A and B) and NPC2 (C and D) treated with various concentrations of MβCD (A and C) and HPβCD (B and D) for 1 day and then fixed (0 days after 24 h treatment), or rinsed extensively, and allowed to grow in normal growth medium for up to three additional days after CD removal. Quantification of LSO filipin fluorescence power is shown.
FIG. 9 A, B. Filipin micrographs showing acute cyclodextrin effects on cholesterol accumulation in NPC1- and NPC2-deficient cells. Background and shading corrected images of untreated control (panels a-c), 0 h after treatment (panels d-f), or 24 h after treatment (panels g-i) for NPC1 (A) or NPC2 (B) mutant cells were obtained as in FIG. 6. […] (Scale bars, 100 μm.)
FIGS. 10 A-D. Short-term MβCD treatment. […] Cells were either fixed immediately or rinsed extensively and returned to growth medium for 24 hours. Quantification of LSO filipin fluorescence power is shown (A and C). Numeric data represent averages±SEM of three independent experiments normalized to control (untreated) average value for each experiment. *P<0.0001 vs. control (n=12, where n is total number of wells used for quantification). Filipin images of NPC1 (B) or NPC2 (D) mutant cells treated with MβCD/cholesterol are shown. (Scale bars, 100 μm.)
To determine whether the CD-mediated decrease in cholesterol accumulation would be sustained after the compound has been removed from the culture medium, NPC1 and NPC2 mutant cells were treated for 1 day with varying concentrations of MβCD or HPβCD (FIG. 8). The cells were then washed extensively to remove the compounds and returned to growth medium for up to three days.
To determine whether the reduction of free cholesterol in LSOs of NPC-defective cells resulted from extraction of cholesterol by CD from the PM or from inside the LSOs, this experiment acutely treated cells for one hour with MβCD in medium without serum (to extract cholesterol from the PM), MβCD in medium plus 10% FBS (to exchange cholesterol between serum lipoproteins and the PM (V. M. Atger, et al. (1997), J. Clin. Invest., 99:773-780)), or MβCD loaded with cholesterol (≈5:1 (MβCD/cholesterol) ratio) to overload cells with cholesterol.

In the next experiment the test system is human NPC1 cells. As to the kind of experiment: Removal of cholesterol from LSOs by filipin staining and digital image analysis.
In the next experiment the test system is NPC mutant cells. The experiment is described as follows: BMP accumulation by anti-BMP immunofluorescence. Type of experiment: cell-based, human. The conditions noted are these: 0.9 mM CD for ≈1 day (FIG. 15). The method, then:
FIGS. 15 A-C. CD effects on BMP accumulation in NPC mutant cells. BMP levels were quantified using fluorescence microscopy from images obtained with a 20× objective of cells stained with anti-BMP antibody and AlexaFluor488-conjugated secondary antibody in NPC1 (A), NPC2 (B) mutant, and 1 μM U18666A-treated normal (C) cells. Cells were incubated with 0.9 mM CD for ≈1 day.

Experiment [4] concerns U18666A-treated GM05659 cells. The experiment is described as follows: LSO filipin assay in U18666A-treated apparently normal fibroblasts. Conditions: read-out: EC50 (μM), 50% reduction in LSO filipin, cyclodextrin 1 day.
Description: (§3) Cells were plated in 384-well assay plates at a density to produce ≈80-90% confluency by experiment completion and treated with U18666A at indicated concentrations for 24 hour before addition of various concentrations of either MβCD or HPβCD for another 24 hours, during which indicated U18666A levels were maintained. At the end of the experiment, cells were fixed with 1% PFA and stained with 50 μg/mL filipin. Images were acquired using an ImageXpressMICRO imaging system with a 10× objective. […] (A) Cholesterol accumulation, as measured by the LSO filipin assay, at different concentrations of U18666A. MβCD (B) and HPβCD (C) LSO filipin dose-response curves at three different U18666A concentrations. […] Data represent averages±SEM of two independent experiments (n=12 for control and n=6 for treated, where n is total number of wells per condition used for quantification).
For another experiment, the system named is npc1−/− mice. The conditions noted are these: cited from earlier work.
Experiment [5] relates to U18666A-treated GM05659 cells.
Description: as §3
A further experiment relates to NPC1 fibroblast GM03123. As to the kind of experiment: HDAC inhibitor dose and time dependence on LSO cholesterol. Format: cell-based, human. The text has this: FIG. 19. Plots showing the dose and time dependence for each of the studied HDACi compounds as a function of time on NPC1 fibroblast GM03123.
Dose and time dependence for each of the studied HDACi compounds as a function of time on NPC1 fibroblast GM03123 are shown in the plots of FIG. 19. Each data point in the plot is representative of a total of 32 images from two independent experiments. The SD for DMSO is 0.07, error bar=SE. The dotted line represents the DMSO control.

In experiment [6] the test system is NPC1- or NPC2-deficient cell lines. As to the kind of experiment: Cholesterol esterification by ACAT (BODIPY-C12). Format: cell-based, human. The conditions noted are these: S58-035 at 10 μg/mL. The method, then: FIG. 12 A, B. Charts showing cholesterol esterification by ACAT. Cyclodextrin effects on cholesterol esterification in NPC1 (A) and NPC2 (B) mutant cells. Cells were treated for 1 hour with 3 mM MβCD or HPβCD and then allowed to recover in growth medium for 16 hours. Cells were then incubated with 3 μM 4,4-difluoro-4-bora-3a,4a-diaza-s-indacene-dodecanoic acid (BODIPY-C12) for 6 hours. The ratio of cholesteryl-BODIPY-C12 ester (CE)/BODIPY-C12 acid (FA) after TLC separation was measured and normalized to the average control value. ACAT inhibitor S58-035 was added, where indicated, at 10 μg/mL. For NPC1-defective cells, the average ratio was 0.110±0.007, which corresponded to 3.73±0.22 fmol CE formed per μg cell protein during 6 hours. Corresponding values for NPC2-defective cells were 0.089±0.003 and 2.50±0.24 fmol/μg.
To measure cholesterol levels within the endoplasmic reticulum in response to brief CD treatments, cholesterol esterification was measured by ACAT (FIG. 12). Increased esterification of cholesterol was observed several hours after a short (1-hour) CD treatment of NPC1- or NPC2-deficient cell lines. […] Corresponding reductions in cholesterol accumulation upon MβCD treatment, as measured by the LSO filipin assay, are shown in FIG. 13.

[7] abbreviates: read-out: EC50 (μM), 50% reduction in LSO filipin, 1 day of treatment.
Setting [8] is: read-out: EC50 (μM), 50% reduction in LSO filipin, 2 days of treatment.
[9] abbreviates: read-out: EC50 (μM), 50% reduction in LSO filipin, 3 days of treatment.
Where [10] appears, read: read-out: EC50 (μM), 50% reduction in LSO filipin, 4 days of treatment.

Like-named read-outs stand apart in the source and are kept apart here.

Description for human NPC1 cells: Graph showing the concentration and time dependence of the removal of cholesterol from LSOs of human NPC1 cells incubated with the indicated concentrations of MβCD in complete medium for 1-4 days.
Graph showing concentration of cholesterol from LSOs of NPC1 cells incubated with 0.33 mM MβCD for one hour under various conditions (i.e., no FBS, 10% FBS, and cholesterol-loaded MβCD (i.e., “MbCD/cholest.”), and these with either no chase or a 24 hour chase). At the end of the incubation, cells were rinsed thoroughly, and returned to complete medium for 24 hours.
Graph comparing the cholesterol-lowering ability of MβCD and a MβCD-dextran composition of the instant invention. Human NPC1 cells were incubated with MβCD (●) or Dextran-PEG-MbCD (O) for 39 hours. The polymers had about two MβCDs per polymer, and the concentration is the MβCD concentration.
(A) Cells were treated for 2 days with 50 μM MβCD or 50 μM MβCD conjugated to dextran fixed with paraformaldehyde, stained, and imaged. Cholesterol accumulation in LSOs was measured by quantifying filipin fluorescence. Data represent averages±SEM of one representative experiment (n=8, where n is total number of wells per condition used for quantification).
In this experiment, studies were conducted to determine the effects of MβCD on NPC1 and NPC2 cells. […] The cells were then rinsed and incubated in complete medium for 24 hours. […] To further emphasize this, the one-hour loading pulse was conducted with cholesterol-loaded MβCD, which would actually increase the cellular cholesterol during the loading period.

For the compound `CC(/C=C/C(=O)NO)=C\[C@@H](C)C(=O)c1ccc(N(C)C)cc1` [trichostatin A], the “reduction of cholesterol in the LSOs” value in experiment [1] was “significantly effective”.
Regarding hydroxypropyl-βCD [HPβCD], in experiment [2], the “ACAT-mediated esterification of cholesterol” value is reported as “increased ACAT-mediated esterification of cholesterol”. Moreover, the EC50 in the experiment on GM03123 (NPC1) cells (setting [7]) worked out at 3.16 µM; in the experiment on GM03123 (NPC1) cells (setting [8]), 3.77 µM; in the experiment with GM03123 (NPC1) cells (setting [9]), 4.18 µM; with GM03123 (NPC1) cells (setting [10]) it was 5.44 µM; in the experiment on GM18455 (NPC2) cells (setting [7]) it was 272 µM; in the experiment with GM18455 (NPC2) cells (setting [8]), 20.8 µM. In addition, the EC50 in the experiment on GM18455 (NPC2) cells (setting [9]) worked out at 16.9 µM; in the experiment with GM18455 (NPC2) cells (setting [10]) it was 11.5 µM; in experiment [4] (U18666A 1,000 nM), 185 µM; in experiment [4] (U18666A […]), 69.9 µM; in [5], 17.4 µM. Further, the “cholesterol accumulation detected by filipin labeling” value in [3] is recorded as “reduced cholesterol accumulation”. Besides, the “LSO values one more day after CD removal versus fixed immediately” value in experiment [3] is given as “further decrease in LSO values”. The “LSO cholesterol accumulation after three days without extracellular CD” value in experiment [3] was “significant reduction”. In addition, the “level to which LSO cholesterol accumulation is reduced” value in experiment [3] is on record as “near-normal levels”. For the same compound, the “times higher concentrations required to achieve the same effect as MβCD” value with human NPC1 cells (relative to MβCD) is reported as 3-5 times. Further, the BMP accumulation result in the experiment on NPC mutant cells is recorded as “significantly reduced BMP accumulation”. Moreover, the glycosphingolipid storage entry in the experiment with npc1−/− mice (repeated injections) is “clearance of various glycosphingolipids”. Besides, the lifespan entry is “further prolongation of lifespan” in the experiment with npc1−/− mice (repeated injections) and “can extend their lifespan” with npc1−/− mice (single injections).
With methyl β-cyclodextrin [MβCD], the EC50 in the experiment with GM03123 (NPC1) cells (setting [7]) worked out at 2.22 µM; in the experiment on GM03123 (NPC1) cells (setting [8]), 1.1 µM; in the experiment on GM03123 (NPC1) cells (setting [9]) it was 0.98 µM; in the experiment on GM03123 (NPC1) cells (setting [10]), 1.08 µM; in the experiment with GM18455 (NPC2) cells (setting [7]), 40.4 µM; in the experiment with GM18455 (NPC2) cells (setting [8]), 3.19 µM. In addition, the EC50 with GM18455 (NPC2) cells (setting [9]) is 2.8 µM; in the experiment on GM18455 (NPC2) cells (setting [10]) it was 1.69 µM; in the experiment on human NPC1 cells (read-out: concentration giving half-maximal effect on removal of cholesterol from LSOs, complete medium, 1-4 days (FIG. 1)), 2 to 3 µM; in experiment [4] (U18666A 1,000 nM), 48.1 µM; in [4] (U18666A […]) it was 18.9 µM; in experiment [5], 6.2 µM. For the same compound, the “cholesterol accumulation detected by filipin labeling” value in [3] is “reduced cholesterol accumulation”. Besides, the “LSO values one more day after CD removal versus fixed immediately” value in experiment [3] is listed as “further decrease in LSO values”. Also, the “LSO cholesterol accumulation after three days without extracellular CD” value in [3] is listed as “significant reduction”. In experiment [3], the “level to which LSO cholesterol accumulation is reduced” value was “near-normal levels”. The “concentration giving effects equivalent to those of HPβCD” value in [3] (relative to HPβCD) is listed as “approximately three-fold lower concentrations”. The “cholesterol in LSOs after 24 hr chase” value in the experiment with human NPC1 cells (1 hour pulse, 0.33 mM, then 24 hours in complete medium) is recorded as “significant reduction”. Moreover, the “time for the effect to reach steady state” value in the experiment on human NPC1 cells (FIG. 1) is on record as “about 2 days”. In addition, in the experiment with NPC mutant cells, the BMP accumulation result is listed as “significantly reduced BMP accumulation”.
For the compound `O=C(CCCCCCC(=O)Nc1ccccc1)NO` [SAHA, suberoylanilide hydroxamic acid], the “reduction of cholesterol in the LSOs” value in the experiment on NPC1 fibroblast GM03123 is listed as “somewhat effective”; with NPC1 fibroblast GM03123 (10 μM, other experiments (not shown)) it was “much more effective”.
In the case of “MβCD-NH-(PEG)3-CONH-aminodextran [MβCD-dextran]”, the “reversal of cholesterol accumulation in LSOs (filipin)” value in the experiment on human NPC1 cells (50 μM MβCD conjugated to dextran, 2 days (FIG. 11A)) is given as “can also reverse cholesterol accumulation”. The “cholesterol-lowering in LSOs” value with human NPC1 cells (39 hours, about two MβCDs per polymer (FIG. 3)) is listed as “significant effect”.
For `CCCCCCCCCC[Si](C)(C)CCC(=O)NC(Cc1ccc(C)cc1)c1ccccc1` (centres unmarked) [S58-035], the “effect on CD-induced increase in cholesterol esterification” value in [6] is listed as “inhibited”.

Values taken from patent US10124019B2, “Compositions and their use for removing cholesterol” (Cornell University, priority 2009, dated 2018).
